From patent publication US8703922B2, “Low-viscosity liquid crystal compound” (Chemgenesis Incorporated, priority 2009, dated 2014)

Legend:
Type in all cases: physicochemical
[1] = Viscosity measurement with viscosity and viscoelasticity measuring apparatus MARS (Example 179); details: 25° C., shear velocity 105.7 s^−1, MARS
Procedure: (§1) The amphipathic compound according to the present invention is in a liquid or a semi-solid state with low viscosity within relatively a wide temperature range. The amphipathic compound according to the present invention preferably has viscosity of 11 Pa·s or less, generally 10 Pa·s or less, more preferably 4.0 Pa·s or less (e.g., 3.5 Pa·s or less), and further preferably 2.0 Pa·s or less, as measured using a viscometer at 25° C., for example. Such measured viscosity is typically measured at a shear rate of 105.7 l/s. To obtain such a measured value, an AR Rheometer (AR-G2, TA Instrument) or a viscosity and viscoelasticity measuring apparatus MARS (Thermo Fisher Scientific K.K.) can be used as a viscometer.
The viscosities of the amphiphilic compounds synthesized above were measured at 25° C. and at a shear velocity of 105.7 s^−1 using a viscosity and viscoelasticity measuring apparatus MARS (Thermo Fisher Scientific).

[2] = Liquid crystal formation in compound/water system, analysed by small-angle X-ray scattering (SAXS); details: room temperature (25° C.); for Type of liquid crystal formed (SAXS peak ratio): 50 wt % (water-excess condition); for Lattice constant (ac) of the cubic liquid crystal: SAXS
Source text: Whether or not a liquid crystal structure has a cubic lattice may be determined by a small-angle X-ray scattering (SAXS) method, for the purpose of confirming whether or not it is cubic liquid crystal. First, an amphipathic compound/water system sample with a predetermined concentration can be added to an X-ray capillary tube made of quartz, for example, and the capillary tube is sealed with an oxy-fuel burner, and subjected to SAXS assay.
Ratio of Pn3m Cubic Liquid Crystal: √{square root over (2)}: √{square root over (3)}: √{square root over (4)}: √{square root over (6)}: √{square root over (8)}: √{square root over (9)}: √{square root over (10)}: , , , [Mathematical expression 1] Ratio of Ia3d Cubic Liquid Crystal: √{square root over (3)}: √{square root over (4)}: √{square root over (7)}: √{square root over (8)}: √{square root over (10)}: √{square root over (11)}: , , , [Mathematical expression 2] Ratio of Im3m Cubic Liquid Crystal: √{square root over (2)}: √{square root over (4)}: √{square root over (6)}: √{square root over (8)}: √{square root over (10)}: √{square root over (12)}: √{square root over (14)}: , , , [Mathematical expression 3]
A peak value is calculated from SAXS data and then the reciprocal ratio is found therefrom according to a method known by persons skilled in the art, so that the space group and the lattice constant can be easily determined.
Mono-O-(5,9,13,17-tetramethyloctadec-4-enoyl)pentaerythritol and pure water were introduced into a mixing device at the concentration of 50 wt % Mono-O-(5,9,13,17-tetramethyloctadec-4-enoyl)pentaerythritol (water-excess condition), and incubation thereof was carried out while performing 100 or more times of mixing operations at room temperature (25° C.) over the period of 24 hours. Thus, a homogeneously mixed sample of mono-O-(5,9,13,17-tetramethyloctadec-4-enoyl)pentaerythritol/water system was obtained. This sample of mono-O-(5,9,13,17-tetramethyloctadec-4-enoyl)pentaerythritol/water system appeared to be a white turbid gel composition.
Subsequently, the thus obtained sample of mono-O-(5,9,13,17-tetramethyloctadec-4-enoyl)pentaerythritol/water system was confirmed to be a cubic liquid crystal by small-angle x-ray scattering (SAXS). The sample of mono-O-(5,9,13,17-tetramethyloctadec-4-enoyl)pentaerythritol/water system was introduced into a quartz X-ray capillary tube, the tip of the capillary was sealed using an oxygen burner, and the capillary tube was subjected to the SAXS analysis. The NANO-Viewer nano-scale X-ray structure analysis equipment (Rigaku) was used for SAXS analysis. SAXS analysis was performed by X-ray irradiation at room temperature (25° C.), 40 kV, 50 mA, wavelength λ=0.1542 nm (Cu-Kα) for 15 min.

[3] = Viscosity measurement with AR Rheometer (AR-G2) of the compounds of Examples 1-11; details: 25° C., after allowing to stand for 12 hours
Procedure: as §1
The viscosity of each of the compounds shown in the Examples 1-11 was measured using AR Rheometer (AR-G2, TA Instrument) after allowing to stand at the temperature of 25° C. for 12 hours.

Compound	Viscosity (Pas · sec) [1] [Pas · sec]	Type of liquid crystal formed (SAXS peak ratio) [2]	Viscosity [3] [Pa·s]	Lattice constant (ac) of the cubic liquid crystal [2] [nm]
CC(=CCOCC(O)CO)CCCC(C)CCCC(C)CCCC(C)C (centres unmarked) [Example 80, mono-O-(3,7,11,15-tetramethylhexadec-2-enyl)glycerol]	0.45	–	–	–
CC(=CCCCOCC(O)CO)CCCC(C)CCCC(C)C (centres unmarked) [Example 107, mono-O-(5,9,13-trimethyltetradec-4-enyl)glycerol]	–	reverse hexagonal liquid crystal	–	–
CC(=CCCCOCC(CO)(CO)CO)CCCC(C)CCCC(C)CCCC(C)C (centres unmarked) [Example 10, mono-O-(5,9,13,17-tetramethyloctadec-4-enyl)pentaerythritol]	–	reverse hexagonal liquid crystal	1.9	–
CC(=CCCCOC1OCC(O)C(O)C1O)CCCC(C)CCCC(C)CCCC(C)C [Example 9, 1-O-(5,9,13,17-tetramethyloctadec-4-enyl)-D-xylopyranoside]	–	cubic liquid crystal that belong to the crystallographic space group Pn3m	–	8.9
CC(=CC(=O)OCC(O)COCC(O)CO)CCCC(C)CCCC(C)CCCC(C)C (centres unmarked) [Example 68, mono-O-(3,7,11,15-tetramethylhexadec-2-enoyl)diglycerol]	9.5	–	–	–
CC(=CCOC[C@H](O)[C@@H](O)[C@H](O)CO)CCCC(C)CCCC(C)C (some centres unmarked) [Example 166, mono-O-(3,7,11-trimethyldodec-2-enyl)xylitol]	1.1	–	–	–
CC(=CC(=O)OCC(CO)(CO)CO)CCCC(C)CCCC(C)CCCC(C)C (centres unmarked) [Example 67, mono-O-(3,7,11,15-tetramethylhexadec-2-enoyl)pentaerythritol]	10.6	–	–	–
CC(=CCCCOCC(CO)(CO)CO)CCCC(C)CCCC(C)C (centres unmarked) [Example 109, mono-O-(5,9,13-trimethyltetradec-4-enyl)pentaerythritol]	0.98	–	–	–
CC(=CCCC(=O)OCC(CO)(CO)CO)CCCC(C)CCCC(C)CCCC(C)C (centres unmarked) [Example 1, mono-O-(5,9,13,17-tetramethyloctadec-4-enoyl)pentaerythritol]	–	cubic liquid crystal that belong to the crystallographic space group Pn3m	1.7	7.80
CC(=CC(=O)OCC(O)CO)CCCC(C)CCCC(C)CCCC(C)C (centres unmarked) [Example 65, mono-O-(3,7,11,15-tetramethylhexadec-2-enoyl)glycerol]	1.1	–	–	–
CC(=CC(=O)OCC(O)CO)CCCC(C)CCCC(C)C (centres unmarked) [Example 146, mono-O-(3,7,11-trimethyldodec-2-enoyl)glycerol]	0.45	cubic liquid crystal that belong to the crystallographic space group Pn3m	–	–
CC(=CCCC(=O)OCC(O)COCC(O)CO)CCCC(C)CCCC(C)C (centres unmarked) [Example 95, mono-O-(5,9,13-trimethyltetradec-4-enoyl)diglycerol]	10.5	–	–	–
CC(=CCC(=O)OCC(O)CO)CCCC(C)CCCC(C)C (centres unmarked) [Example 120, mono-O-(4,8,12-trimethyltridec-3-enoyl)glycerol]	–	cubic liquid crystal that belong to the crystallographic space group Pn3m	–	–
CC(=CCCCOC[C@H](O)[C@H](O)CO)CCCC(C)CCCC(C)CCCC(C)C (some centres unmarked) [1-O-(5,9,13,17-tetramethyloctadec-4-enyl)erythritol]	–	reverse hexagonal liquid crystal	2.3	–
CC(=CCCCOCC(O)COCC(O)CO)CCCC(C)CCCC(C)CCCC(C)C (centres unmarked) [Example 32, mono-O-(5,9,13,17-tetramethyloctadec-4-enyl)diglycerol]	–	cubic liquid crystal that belong to the crystallographic space group Pn3m	–	–
CC(=CCOCC(CO)(CO)CO)CCCC(C)CCCC(C)C (centres unmarked) [Example 163, mono-O-(3,7,11-trimethyldodec-2-enyl)pentaerythritol]	2.7	–	–	–
CC(=CC(=O)OC[C@H](O)[C@H](O)CO)CCCC(C)CCCC(C)C (some centres unmarked) [Example 147, mono-O-(3,7,11-trimethyldodec-2-enoyl)erythritol]	7.1	–	–	–
CC(=CCCC(=O)OCC(O)CO)CCCC(C)CCCC(C)C (centres unmarked) [Example 92, mono-O-(5,9,13-trimethyltetradec-4-enoyl)glycerol]	0.48	mixture of a cubic liquid crystal that belong to the crystallographic space group Pn3m and a reverse hexagonal liquid crystal	–	–
CC(=CCCC(=O)OC[C@H](O)[C@H](O)CO)CCCC(C)CCCC(C)CCCC(C)C (some centres unmarked) [Example 2, mono-O-(5,9,13,17-tetramethyloctadec-4-enoyl)erythritol]	–	reverse hexagonal liquid crystal	2.0	–
CC(=CCCC(=O)OCC(O)CO)CCCC(C)CCCC(C)CCCC(C)C (centres unmarked) [Example 3, mono-O-(5,9,13,17-tetramethyloctadec-4-enoyl)glycerol]	–	cubic liquid crystal that belong to the crystallographic space group Pn3m	–	–
CC(=CC(=O)OCC(O)COCC(O)CO)CCCC(C)CCCC(C)C (centres unmarked) [Example 149, mono-O-(3,7,11-trimethyldodec-2-enoyl)diglycerol]	6.9	–	–	–
mono-O-(5,9,13,17-tetramethyloctadec-4-enoyl)di glycerol [Example 4]	4.5	reverse hexagonal liquid crystal	–	–
CC(=CCCCOCC(O)COCC(O)CO)CCCC(C)CCCC(C)C (centres unmarked) [Example 110, mono-O-(5,9,13-trimethyltetradec-4-enyl)diglycerol]	1.7	–	–	–
CC(=CCCCOC(CO)C(O)CO)CCCC(C)CCCC(C)CCCC(C)C (centres unmarked) [2-O-(5,9,13,17-tetramethyloctadec-4-enyl)erythritol]	–	cubic liquid crystal that belong to the crystallographic space group Pn3m	3.2	8.9
CC(=CCCCOC1OCC(O)C(O)C1O)CCCC(C)CCCC(C)C [Example 103, 1-O-(5,9,13-trimethyltetradec-4-enyl)-D-xylopyranoside]	–	cubic liquid crystal that belong to the crystallographic space group Pn3m	–	–
CC(=CCCCOCC(O)CO)CCCC(C)CCCC(C)CCCC(C)C (centres unmarked) [Example 31, mono-O-(5,9,13,17-tetramethyloctadec-4-enyl)glycerol]	0.44	–	–	–
CC(=CCOCC(CO)(CO)CO)CCCC(C)CCCC(C)CCCC(C)C (centres unmarked) [Example 82, mono-O-(3,7,11,15-tetramethylhexadec-2-enyl)pentaerythritol]	4.0	–	–	–
